Results on ten compounds are retold here after US10875860B2, “Azaindenoisoquinoline compounds and uses thereof” (Purdue Research Foundation, priority 2016, dated 2020).

A word on the GI50: it is the concentration giving 50% growth inhibition.

Where two headings read alike, the source gives them in different places.

For one assay, the target named is T1, Top1 (Homo sapiens, UniProt P11387).
T1 sequence (P11387 1-765): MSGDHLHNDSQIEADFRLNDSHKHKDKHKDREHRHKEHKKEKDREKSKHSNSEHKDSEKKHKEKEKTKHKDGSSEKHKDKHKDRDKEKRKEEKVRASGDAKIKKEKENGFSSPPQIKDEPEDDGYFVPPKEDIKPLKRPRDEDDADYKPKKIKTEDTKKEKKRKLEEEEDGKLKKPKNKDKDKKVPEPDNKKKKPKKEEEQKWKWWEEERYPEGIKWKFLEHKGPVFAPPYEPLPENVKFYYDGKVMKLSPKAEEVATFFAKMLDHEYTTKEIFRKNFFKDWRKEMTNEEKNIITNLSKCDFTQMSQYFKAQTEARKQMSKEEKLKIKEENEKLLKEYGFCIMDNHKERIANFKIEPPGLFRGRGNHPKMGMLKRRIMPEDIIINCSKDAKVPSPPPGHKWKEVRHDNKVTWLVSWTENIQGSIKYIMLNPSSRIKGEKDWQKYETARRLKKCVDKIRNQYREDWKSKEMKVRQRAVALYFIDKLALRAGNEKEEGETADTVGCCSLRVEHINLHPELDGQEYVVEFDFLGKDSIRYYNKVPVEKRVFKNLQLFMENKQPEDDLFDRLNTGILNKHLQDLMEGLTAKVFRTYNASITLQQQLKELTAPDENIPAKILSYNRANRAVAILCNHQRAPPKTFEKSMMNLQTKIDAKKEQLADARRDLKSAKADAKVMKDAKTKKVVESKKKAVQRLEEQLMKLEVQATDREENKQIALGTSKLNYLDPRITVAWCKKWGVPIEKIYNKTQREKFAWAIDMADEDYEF
Description: Top1-mediated DNA cleavage assay. The format is biochemical. The arrangement: Top1 inhibitory activity level / Top1 inhibitory activity score: key to the marks not given beside the values.

In another assay the target is Tdp1 (Homo sapiens, UniProt Q9NUW8). Description: Recombinant Tdp1 assay. The format is biochemical.
The next assay deals with T2, recombinant human TDP2 (Homo sapiens, UniProt O95551).
T2 sequence (O95551 1-362): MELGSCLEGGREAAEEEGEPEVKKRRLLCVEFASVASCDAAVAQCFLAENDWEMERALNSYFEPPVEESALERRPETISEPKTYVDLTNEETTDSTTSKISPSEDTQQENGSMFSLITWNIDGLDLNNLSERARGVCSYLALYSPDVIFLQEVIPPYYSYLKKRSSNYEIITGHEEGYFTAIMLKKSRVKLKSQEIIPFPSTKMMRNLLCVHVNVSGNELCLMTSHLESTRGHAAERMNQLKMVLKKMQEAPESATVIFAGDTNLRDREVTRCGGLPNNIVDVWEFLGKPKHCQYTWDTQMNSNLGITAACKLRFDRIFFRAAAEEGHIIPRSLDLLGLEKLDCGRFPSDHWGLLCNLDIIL
Description: Recombinant Tdp2 assay. It is filed as biochemical.

For another assay, the system named is HCT-116. In words: NCI-60 cytotoxicity, HCT-116. The format is cell-based. To be noted: Homo sapiens, single determinations, Table 2, read-out: Cytotoxicity (GI50) Colon HCT-116.
A further assay has as its system DU-145. In words: NCI-60 cytotoxicity, DU-145. The format is cell-based. To be noted: Homo sapiens, single determinations, Table 2, read-out: Cytotoxicity (GI50) Prostate DU-145.
The next assay deals with MCF-7. Description: NCI-60 cytotoxicity, MCF-7. To be noted: Homo sapiens, MCF7, read-out: Cytotoxicity (GI50) Breast MCF-7.
The subject of a further assay is HOP-62. In words: NCI-60 cytotoxicity, HOP-62. Particulars: Homo sapiens, HOP-62, read-out: Cytotoxicity (GI50) Lung HOP-62.
Another assay relates to SF-539. In words: NCI-60 cytotoxicity, SF-539. To be noted: Homo sapiens, SF-539, read-out: Cytotoxicity (GI50) CNS SF-539.
Another assay concerns UACC-62. In words: NCI-60 cytotoxicity, UACC-62. Particulars: Homo sapiens, UACC-62, read-out: Cytotoxicity (GI50) Melanoma UACC-62.
The subject of the next assay is OVCAR-3. In words: NCI-60 cytotoxicity, OVCAR-3. To be noted: Homo sapiens, OVCAR-3, read-out: Cytotoxicity (GI50) Ovarian Ovcar-3.
In assay [1] the test system is NCI-60 panel of human cancer cell lines. Description: NCI-60 screen, mean graph midpoint over all cell lines. Particulars: Homo sapiens, read-out: Cytotoxicity (GI50) MGM.
The subject of the next assay is SN12C. In words: NCI-60 cytotoxicity, SN12C. To be noted: Homo sapiens, read-out: Cytotoxicity (GI50) Renal SN12C.
[2] abbreviates: DNA cleavage relative to 1 μM MJ-III-65 (19) and 1 μM camptothecin (18), Table 2.
Setting [3] is: determined in duplicate, Table 2, read-out: Enzyme Inhibitory Activity Tdp1 (IC50).
Setting [4] is: determined in duplicate, Table 2, read-out: Enzyme Inhibitory Activity Tdp2 (IC50).
The mark [5] stands for this setting: read-out: Enzyme Inhibitory Activity Tdp1 (IC50).

Sequence of Tdp1 (Q9NUW8 whole entry): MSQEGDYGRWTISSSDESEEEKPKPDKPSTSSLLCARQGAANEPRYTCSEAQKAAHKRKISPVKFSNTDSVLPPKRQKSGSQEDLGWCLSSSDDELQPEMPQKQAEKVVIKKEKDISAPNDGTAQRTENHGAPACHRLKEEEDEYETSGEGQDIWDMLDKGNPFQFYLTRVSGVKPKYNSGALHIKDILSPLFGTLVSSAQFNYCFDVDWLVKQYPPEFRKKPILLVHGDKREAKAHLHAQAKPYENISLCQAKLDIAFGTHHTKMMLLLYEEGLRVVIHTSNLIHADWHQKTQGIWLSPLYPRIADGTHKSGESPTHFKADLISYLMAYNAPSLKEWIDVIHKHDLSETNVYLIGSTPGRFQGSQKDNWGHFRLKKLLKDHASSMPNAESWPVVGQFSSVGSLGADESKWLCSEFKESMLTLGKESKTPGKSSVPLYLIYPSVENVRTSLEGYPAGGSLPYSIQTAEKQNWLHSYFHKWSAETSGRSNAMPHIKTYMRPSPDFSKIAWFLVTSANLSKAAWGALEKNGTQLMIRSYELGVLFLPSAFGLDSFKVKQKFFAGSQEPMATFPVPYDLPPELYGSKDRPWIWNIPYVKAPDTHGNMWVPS
Description for recombinant human TDP2: TDP2 reactions were carried out as described previously with the following modifications. […] Reactions were terminated and treated similarly to whole-cell extract and recombinant Tdp1 reactions (see previous paragraph).

As for `COc1cnc2c(c1)C(=O)c1c-2n(CCCN2CCOCC2)c(=O)c2cc(Cl)ccc12` [Compound 16a, 3-Chloro-9-methoxy-6-(3-morpholinopropyl)-5H-pyrido[3′,2′:4,5]cyclopenta[1,2-c]isoquinoline-5,11(6H)-dione], the “Enzyme Inhibitory Activity Top1” value at Top1 (setting [2]) was “+++”. Further, the IC50 at Tdp1 (setting [3]) and at recombinant human TDP2 (setting [4]) was greater than 111 µM in each case. Further, the GI50 in the assay with HCT-116 was 160 nM; with DU-145, 410 nM; with MCF-7, 90 nM; with HOP-62, 270 nM; in the assay on SF-539 it was 230 nM; with UACC-62 it was 180 nM. Besides, the GI50 in the assay on OVCAR-3 was 780 nM; in [1], 100 nM.

Take `COc1cnc2c(c1)C(=O)c1c-2n(CCCn2ccnc2)c(=O)c2cc(Cl)ccc12` [Compound 16b, 6-(3-(1H-Imidazol-1-yl)propyl)-3-chloro-9-methoxy-5H-pyrido[3′,2′:4,5]cyclopenta[1,2-c]isoquinoline-5,11(6H)-dione]: the “Enzyme Inhibitory Activity Top1” value at Top1 (setting [2]) is listed as “+++”. The IC50 at Tdp1 (setting [3]) and at recombinant human TDP2 (setting [4]) was greater than 111 µM throughout. The GI50 was 14 nM with HCT-116; 43 nM in the assay with DU-145; less than 10 nM in the assay on MCF-7; 20 nM in the assay with HOP-62; 38 nM in the assay with SF-539; 28 nM in the assay on UACC-62. In addition, the values for the GI50 (in the assay with OVCAR-3; in assay [1]) were 120 nM and 63 nM, respectively.

Consider `COc1cnc2c(c1)C(=O)c1c-2n(CCCN2CCC(O)CC2)c(=O)c2cc(Cl)ccc12` [Compound 16d, 3-Chloro-6-(3-(4-hydroxypiperidin-1-yl)propyl)-9-methoxy-5H-pyrido[3′,2′:4,5]cyclopenta-[1,2-c]isoquinoline-5,11(6H)-dione], for which the “Enzyme Inhibitory Activity Top1” value on Top1 (setting [2]) is “++++”. Further, the “Top1 inhibitory activity score” value on Top1 (running text b88 on series 2, tested at 0.1, 1, 10 and 100 μM) is reported as “++++”. In addition, the IC50 at Tdp1 (setting [3]) is 14 ± 1 µM; at recombinant human TDP2 (setting [4]) it was greater than 111 µM. In addition, the GI50 in the assay with HCT-116 amounted to 98 nM; in the assay with DU-145, 270 nM; in the assay with MCF-7 it was 42 nM; in the assay with HOP-62, 94 nM; in the assay with SF-539, 430 nM; in the assay with UACC-62 it was 190 nM. The GI50 with OVCAR-3 came to 1420 nM; in [1], 660 nM.

For `COc1cnc2c(c1)C(=O)c1c-2n(CCCN2CCNCC2)c(=O)c2cc(Cl)ccc12` [Compound 16e, 3-Chloro-9-methoxy-6-(3-(piperazin-1-yl)propyl)-5H-pyrido[3′,2′:4,5]cyclopenta[1,2-c]isoquinoline-5,11(6H)-dione], the “Enzyme Inhibitory Activity Top1” value at Top1 (setting [2]) is given as “+”. The IC50 on Tdp1 (setting [5]) is 20.2 ± 3.7 µM; at recombinant human TDP2 (setting [4]) it was greater than 111 µM. The concentration for 50% growth inhibition (GI50) in the assay with HCT-116 is 298 nM; with DU-145, 242 nM; in the assay on SN12C, 489 nM; in the assay with MCF-7, 89 nM; in the assay on HOP-62, 200 nM; with SF-539 it was 1330 nM. Also, the GI50 in the assay with UACC-62 is 1430 nM; in the assay on OVCAR-3, 1430 nM; in assay [1] it was 580 nM.

In the case of `COc1cnc2c(c1)C(=O)c1c-2n(CCCNC(C)C)c(=O)c2cc(Cl)ccc12` [Compound 16f, 3-Chloro-9-methoxy-6-(3-(isopropylamino)propyl)-5H-pyrido[3′,2′:4,5]cyclopenta[1,2-c]isoquinoline-5,11(6H)-dione], at Top1 (setting [2]), the “Enzyme Inhibitory Activity Top1” value is reported as “++”. In addition, the IC50 at Tdp1 (setting [3]) was 33.3 ± 4.2 µM; at recombinant human TDP2 (setting [4]), greater than 111 µM. In addition, the GI50 amounted to 138 nM in the assay with HCT-116; 173 nM in the assay with DU-145; 417 nM in the assay with SN12C; 37 nM in the assay with MCF-7; 70 nM in the assay on HOP-62; 554 nM with SF-539. In addition, the figures for the GI50 (with UACC-62; with OVCAR-3; in [1]) were 303 nM, 1390 nM and 380 nM, respectively.

Take `CCNCCCn1c2c(c3ccc(Cl)cc3c1=O)C(=O)c1cc(OC)cnc1-2` [Compound 16h, 3-Chloro-9-methoxy-6-(3-(ethylamino)propyl)-5H-pyrido[3′,2′:4,5]cyclopenta[1,2-c]isoquinoline-5,11(6H)-dione]: the IC50 at Tdp1 (setting [3]) came out at 22.2 ± 6.4 µM. The GI50 is 203 nM in the assay on HCT-116; 208 nM in the assay with DU-145; 675 nM with SN12C; less than 10 nM in the assay on MCF-7; 122 nM with HOP-62; 506 nM in the assay with SF-539. The concentration for 50% growth inhibition (GI50) is 532 nM in the assay with UACC-62, 2130 nM in the assay with OVCAR-3 and 426 nM in assay [1].

For the compound `COc1cnc2c(c1)C(=O)c1c-2n(CCCN2CCCC2)c(=O)c2cc(Cl)ccc12` [Compound 16i, 3-Chloro-9-methoxy-6-(3-(pyrrolidin-1-yl)propyl)-5H-pyrido[3′,2′:4,5]cyclopenta[1,2-c]isoquinoline-5,11(6H)-dione], the IC50 on Tdp1 (setting [5]) was determined as 27.5 ± 0.6 µM.

On to `COc1cnc2c(c1)C(=O)c1c-2n(CCCN2CCN(C)CC2)c(=O)c2cc(Cl)ccc12` [Compound 16j, 3-Chloro-9-methoxy-6-(3-(4-methylpiperazin-1-yl)propyl)-5H-pyrido[3′,2′:4,5]cyclopenta[1,2-c]isoquinoline-5,11(6H)-dione], for which the “Enzyme Inhibitory Activity Top1” value on Top1 (setting [2]) is on record as “+”. The IC50 on Tdp1 (setting [3]) was greater than 111 µM. In addition, the GI50 came out at 980 nM in the assay with HCT-116; 3180 nM with DU-145; 10200 nM in the assay on SN12C; 487 nM with MCF-7; 950 nM in the assay with HOP-62; 2150 nM with SF-539. Moreover, the GI50 is 1810 nM in the assay with UACC-62, 15100 nM in the assay on OVCAR-3 and 2950 nM in assay [1].

`CC[C@@]1(O)C(=O)OCc2c1cc1n(c2=O)Cc2cc3ccccc3nc2-1` [Compound 18, camptothecin, reference compound]: the “Enzyme Inhibitory Activity Top1” value on Top1 (DNA cleavage relative to 1 μM MJ-III-65 (19) and 1 μM camptothecin (18), Table 1) is recorded as “++++”. In addition, the IC50 on Tdp1 and at recombinant human TDP2 was greater than 111 µM in each case. The GI50 is 20 nM in the assay on SN12C; 13 nM in the assay with MCF-7; less than 10 nM with HOP-62; less than 10 nM in the assay with SF-539; less than 10 nM in the assay on UACC-62; 40 nM in [1].

In the case of `COc1cc2c3c(n(CCCNCCO)c(=O)c2cc1OC)-c1cc2c(cc1C3=O)OCO2` [Compound 19, reference compound], on Top1, the “Enzyme Inhibitory Activity Top1” value was “++++”. Further, the IC50 is 12 to 111 µM at Tdp1 (semiquantitative scale, in duplicate, Table 1, read-out: Enzyme Inhibitory Activity Tdp1) and 1 to 12 µM at recombinant human TDP2 (semiquantitative scale, in duplicate, Table 1, read-out: Enzyme Inhibitory Activity Tdp2). Moreover, the GI50 is less than 10 nM in the assay with SN12C; less than 10 nM with MCF-7; 20 nM in the assay on HOP-62; 40 nM in the assay on SF-539; 30 nM in the assay on UACC-62; 500 nM in the assay on OVCAR-3. The GI50 in assay [1] turned out to be 210 nM.
